Test results as given in ChEMBL document CHEMBL1132123, “The synthesis and biological activity of a series of 2,4-diaminopyrido[2,3-d]pyrimidine based antifolates as antineoplastic and antiarthritic agents” (Bioorg Med Chem Lett, 1999).

Tests used:
Dihydrofolate reductase = target: T1, Dihydrofolate reductase (Homo sapiens, UniProt P00374); assay: Inhibitory activity against recombinant human dihydrofolate reductase (DHFR)
T1 sequence (P00374 whole entry): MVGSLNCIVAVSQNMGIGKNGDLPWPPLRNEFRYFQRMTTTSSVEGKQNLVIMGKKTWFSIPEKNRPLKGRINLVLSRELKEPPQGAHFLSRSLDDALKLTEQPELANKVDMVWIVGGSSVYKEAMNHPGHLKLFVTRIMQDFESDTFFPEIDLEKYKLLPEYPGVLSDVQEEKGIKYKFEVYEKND

[1] = target: T2, Trifunctional purine biosynthetic protein adenosine-3 (Mus musculus, UniProt Q64737); assay: Inhibitory activity against murine glycinamide ribonucleotide formyltransferase (GARFT) enzyme
T2 sequence (Q64737 whole entry): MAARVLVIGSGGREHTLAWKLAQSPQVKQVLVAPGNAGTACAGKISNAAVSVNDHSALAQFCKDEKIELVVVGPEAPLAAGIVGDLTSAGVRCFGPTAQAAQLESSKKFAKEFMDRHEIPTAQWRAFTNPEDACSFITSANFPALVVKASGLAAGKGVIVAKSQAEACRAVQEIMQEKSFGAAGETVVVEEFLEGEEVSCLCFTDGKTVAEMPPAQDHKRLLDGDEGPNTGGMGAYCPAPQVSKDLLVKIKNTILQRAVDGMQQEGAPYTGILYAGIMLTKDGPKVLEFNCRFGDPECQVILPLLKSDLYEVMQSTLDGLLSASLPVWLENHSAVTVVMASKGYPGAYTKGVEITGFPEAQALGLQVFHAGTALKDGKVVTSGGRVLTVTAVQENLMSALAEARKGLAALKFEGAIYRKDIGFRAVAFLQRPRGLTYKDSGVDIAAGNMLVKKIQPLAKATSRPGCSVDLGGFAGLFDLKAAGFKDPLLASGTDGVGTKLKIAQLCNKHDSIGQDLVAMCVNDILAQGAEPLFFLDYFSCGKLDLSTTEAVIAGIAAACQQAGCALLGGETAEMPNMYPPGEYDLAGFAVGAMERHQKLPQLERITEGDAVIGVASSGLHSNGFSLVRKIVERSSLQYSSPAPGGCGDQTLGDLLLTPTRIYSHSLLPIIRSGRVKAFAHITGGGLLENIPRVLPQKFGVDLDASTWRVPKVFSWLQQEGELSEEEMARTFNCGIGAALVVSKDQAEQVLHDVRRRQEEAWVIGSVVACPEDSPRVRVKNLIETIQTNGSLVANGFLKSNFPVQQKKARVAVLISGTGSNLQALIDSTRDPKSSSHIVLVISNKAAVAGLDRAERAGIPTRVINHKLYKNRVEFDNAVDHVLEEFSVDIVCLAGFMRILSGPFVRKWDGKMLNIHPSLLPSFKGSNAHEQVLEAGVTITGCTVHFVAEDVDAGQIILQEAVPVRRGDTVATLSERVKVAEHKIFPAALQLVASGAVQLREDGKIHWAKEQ

Thymidylate synthase [2] = target: T3, Thymidylate synthase (Homo sapiens, UniProt P04818); assay: Inhibitory activity against recombinant human Thymidylate synthase enzyme
[3] = Vmax/Km value was determined
Rattus norvegicus [4] = assay: Compound evaluated for inhibition of rat paw swelling after ip administration at 0.30 mg/kg in delayed phase; type: functional; details: route intraperitoneal
Rattus norvegicus [5] = assay: Compound evaluated for inhibition of rat paw swelling after ip administration at 0.30 mg/kg and expressed as net swelling in mL of displaced water in delayed phase; type: functional; details: dose 0.3 mg/kg; route intraperitoneal
Rattus norvegicus [6] = assay: Compound evaluated for inhibition of rat paw swelling after ip administration at 0.06 mg/kg in acute phase; type: functional; details: route intraperitoneal
Rattus norvegicus [7] = assay: Compound evaluated for inhibition of rat paw swelling after ip administration at 0.06 mg/kg in delayed phase; type: functional; details: route intraperitoneal
Rattus norvegicus [8] = assay: Compound evaluated for inhibition of rat paw swelling after ip administration at 0.125 mg/kg in acute phase; type: functional; details: route intraperitoneal
Rattus norvegicus [9] = assay: Compound evaluated for inhibition of rat paw swelling after ip administration at 0.125 mg/kg in delayed phase; type: functional; details: route intraperitoneal
Rattus norvegicus [10] = assay: Compound evaluated for inhibition of rat paw swelling after ip administration at 0.06 mg/kg and expressed as net swelling in mL of displaced water in acute phase; type: functional; details: route intraperitoneal
Rattus norvegicus [11] = assay: Compound evaluated for inhibition of rat paw swelling after ip administration at 0.06 mg/kg and expressed as net swelling in mL of displaced water in delayed phase; type: functional; details: route intraperitoneal
Rattus norvegicus [12] = assay: Compound evaluated for inhibition of rat paw swelling after ip administration at 0.125 mg/kg and expressed as net swelling in mL of displaced water in acute phase; type: functional; details: route intraperitoneal
Rattus norvegicus [13] = assay: Compound evaluated for inhibition of rat paw swelling after ip administration at 0.125 mg/kg and expressed as net swelling in mL of displaced water in delayed phase; type: functional; details: route intraperitoneal
Thymidylate synthase [14] = target: T3, Thymidylate synthase; assay: Inhibitory activity against recombinant human Thymidylate synthase
[15] = substrate: C[C@](CCC(=O)O)(NC(=O)c1ccc(CCC2CNc3nc(N)nc(N)c3C2)cc1)C(=O)O; assay: (§1) Maximum rate of metabolism by hog liver folyl-poly-glutamate synthetase (FPGS) was determined; details: Sus scrofa
[16] = substrate: C[C@](CCC(=O)O)(NC(=O)c1ccc(CCC2CNc3nc(N)nc(N)c3C2)o1)C(=O)O; assay: as §1; details: Sus scrofa
[17] = substrate: C[C@](CCC(=O)O)(NC(=O)c1ccc(CCC2CNc3nc(N)nc(N)c3C2)s1)C(=O)O; assay: as §1; details: Sus scrofa
[18] = substrate: Nc1nc(O)c2c(n1)NCC(CCc1ccc(C(=O)NC(CCC(=O)O)C(=O)O)cc1)C2; assay: as §1; details: Sus scrofa
[19] = substrate: C[C@](CCC(=O)O)(NC(=O)c1ccc(CCC2CNc3nc(N)nc(N)c3C2)cc1)C(=O)O; assay: (§2) Michaelis-Menten constant for hog liver folyl-poly-glutamate synthetase (FPGS); details: Sus scrofa
[20] = substrate: C[C@](CCC(=O)O)(NC(=O)c1ccc(CCC2CNc3nc(N)nc(N)c3C2)o1)C(=O)O; assay: as §2; details: Sus scrofa
[21] = substrate: C[C@](CCC(=O)O)(NC(=O)c1ccc(CCC2CNc3nc(N)nc(N)c3C2)s1)C(=O)O; assay: as §2; details: Sus scrofa
[22] = substrate: Nc1nc(O)c2c(n1)NCC(CCc1ccc(C(=O)NC(CCC(=O)O)C(=O)O)cc1)C2; assay: as §2; details: Sus scrofa

T3 sequence (P04818 whole entry): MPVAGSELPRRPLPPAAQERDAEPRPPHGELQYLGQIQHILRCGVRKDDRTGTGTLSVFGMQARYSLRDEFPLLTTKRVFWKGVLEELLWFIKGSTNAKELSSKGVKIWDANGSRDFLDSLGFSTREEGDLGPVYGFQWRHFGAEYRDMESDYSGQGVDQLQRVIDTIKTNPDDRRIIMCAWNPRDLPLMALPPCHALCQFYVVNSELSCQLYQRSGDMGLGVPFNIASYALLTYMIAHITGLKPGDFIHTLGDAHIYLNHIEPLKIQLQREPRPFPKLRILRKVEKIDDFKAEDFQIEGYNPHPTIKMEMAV

Q: What does the source list for `C[C@](CCC(=O)O)(NC(=O)c1ccc(CCC2CNc3nc(N)nc(N)c3C2)o1)C(=O)O` (some centres not stated)?
A: Ki (Dihydrofolate reductase): 9.87 nM; Ki [1]: 710 nM; Ki (Thymidylate synthase [2]): > 5000 nM; Vmax / Km [3]: 9.2

Q: Which Ki (Dihydrofolate reductase) does the source give for `C[C@](CCC(=O)O)(NC(=O)c1ccc(CCC2CNc3nc(N)nc(N)c3C2)s1)C(=O)O` (some centres not stated) here?
A: 0.69 nM

Q: And the Ki [1]?
A: 9200 nM

Q: What about the Ki (Thymidylate synthase [2]) of the same molecule?
A: > 5000 nM

Q: What about the Vmax / Km [3] of the same molecule?
A: 98

Q: Which inhibition in vivo at 0.3 mg/kg (Rattus norvegicus [4]) does the source give for `C[C@]12CCC(=O)C=C1CCC1[C@@H]2[C@@H](O)C[C@@]2(C)[C@H]1CC[C@]2(O)C(=O)CO` (single isomer, unassigned) [HYDROCORTISONE] here?
A: 36%

Q: What about the “Net Swelling” value (Rattus norvegicus [5]) of the same molecule?
A: 0.09

Q: With `CN(Cc1cnc2nc(N)nc(N)c2n1)c1ccc(C(=O)N[C@@H](CCC(=O)O)C(=O)O)cc1` as the molecule, how does the Vmax / Km [3] read?
A: 4.3

Q: With `Nc1nc(O)c2c(n1)NCC(CCc1ccc(C(=O)NC(CCC(=O)O)C(=O)O)cc1)C2` (configuration not stated) as the molecule, how does the Vmax / Km [3] read?
A: 60

Q: Which Ki (Dihydrofolate reductase) does the source give for `C[C@](CCC(=O)O)(NC(=O)c1ccc(CCC2CNc3nc(N)nc(N)c3C2)cc1)C(=O)O` (some centres not stated) here?
A: 0.29 nM

Q: What about the Ki [1] of the same molecule?
A: 56000 nM

Q: What about the inhibition in vivo at 0.06 mg/kg (Rattus norvegicus [6]) of the same molecule?
A: 0%

Q: And the inhibition in vivo at 0.06 mg/kg (Rattus norvegicus [7])?
A: 0%

Q: And the inhibition in vivo at 0.125 mg/kg (Rattus norvegicus [8])?
A: 35%

Q: And the inhibition in vivo at 0.125 mg/kg (Rattus norvegicus [9])?
A: 14%

Q: And the “Net Swelling” value (Rattus norvegicus [10])?
A: 0.82

Q: And the “Net Swelling” value (Rattus norvegicus [11])?
A: 0.15

Q: What about the “Net Swelling” value (Rattus norvegicus [12]) of the same molecule?
A: 0.55

Q: What about the “Net Swelling” value (Rattus norvegicus [13]) of the same molecule?
A: 0.12

Q: And the Ki (Thymidylate synthase [14])?
A: > 5000 nM

Q: What about the Vmax / Km [3] of the same molecule?
A: 40

B1: Folylpolyglutamate synthase, mitochondrial (Homo sapiens), Q05932 (protein)
chain: MSRARSHLRAALFLAAASARGITTQVAARRGLSAWPVPQEPSMEYQDAVRMLNTLQTNAGYLEQVKRQRGDPQTQLEAMELYLARSGLQVEDLDRLNIIHVTGTKGKGSTCAFTECILRSYGLKTGFFSSPHLVQVRERIRINGQPISPELFTKYFWRLYHRLEETKDGSCVSMPPYFRFLTLMAFHVFLQEKVDLAVVEVGIGGAYDCTNIIRKPVVCGVSSLGIDHTSLLGDTVEKIAWQKGGIFKQGVPAFTVLQPEGPLAVLRDRAQQISCPLYLCPMLEALEEGGPPLTLGLEGEHQRSNAALALQLAHCWLQRQDRHGAGEPKASRPGLLWQLPLAPVFQPTSHMRLGLRNTEWPGRTQVLRRGPLTWYLDGAHTASSAQACVRWFRQALQGRERPSGGPEVRVLLFNATGDRDPAALLKLLQPCQFDYAVFCPNLTEVSSTGNADQQNFTVTLDQVLLRCLEHQQHWNHLDEEQASPDLWSAPSPEPGGSASLLLAPHPPHTCSASSLVFSCISHALQWISQGRDPIFQPPSPPKGLLTHPVAHSGASILREAAAIHVLVTGSLHLVGGVLKLLEPALSQ
Q: For B1, which Vmax [15] is on record?
A: 1190 nM/h/mg

Q: And the Vmax [16]?
A: 696 nM/h/mg

Q: What about the Vmax [17] of the same molecule?
A: 1140 nM/h/mg

Q: And the Vmax [18]?
A: 977 nM/h/mg

Q: And the Km [19]?
A: 28.2 µM

Q: And the Km [20]?
A: 75.3 µM

Q: And the Km [21]?
A: 11.6 µM

Q: And the Km [22]?
A: 16.4 µM
